Results as given in patent US6169104A, “Di-aryl ethers and their derivatives as anti-cancer agents” (Large Scale Biology Corporation, priority 1998, dated 2001).

Columns and labels:
[1] = tested on: angiogenesis induced by hFGF-B in the CAM; test: Chick chorioallantoic membrane (CAM) assay, 14C-proline incorporation into collagenous protein; format: in vivo, chick embryo; settings: for effect in the CAM assay: summary of the two experiments
Protocol: BTO-964 [methyl 3,5-diiodo-4(4'-methoxyphenoxy) benzaldehyde], and BTO-967 [methyl 3,5-diiodo-4(4'-methoxyphenoxy)-thiobenzoate] were tested in the CAm assay. The endpoint of the CAM assay was a quantiative determination of basement membrane biosynthesis by measuring the incorporation of ^14 C-proline into Type IV collagenous protein.
The CAM assay involves the development of live chick embryos in Petri dishes under special sterile conditions. Therefore, only limited numbers of embryos can be used for evaluation of compounds in a single experiment. BTO-964 and BTO-967 was tested in separate assays. A known angiogenesis inhibitor, 2-methoxyestradiol (2-ME), was used as the positive control, and human fibroblast growth factor (hFGF) was used to induce angiogenesis in the CAM.
For testing, a minimum amount of acetone-methanol (1:1) was added to the test compounds for sterilization. The acetone-methanol mixture was then evaporated to dryness in a sterile hood. The compounds were dissolved in dimethyl sulfoxide (DMSO) first and then diluted with saline containing methylcellulose. The final concentrations were 2% DMSO and 0.5% methylcellulose. all test solutions were added to each CAM in […] aliquots.
Fresh fertile eggs were incubated for three days in a standard egg incubator. On Day 3, eggs were cracked under sterile conditions and embryos were placed in 20×100 mm plastic Petri dishes and cultivated at 37° C. in an embryo incubator with a water reservoir on the bottom shelf. Air was continuously bubbled into the water reservoir by using a small pump so that the humidity in the incubator was kept constant. Observations were made daily to ensure that all embryos were healthy. Dead or unhealthy embryos were removed from the incubator immediately to avoid contamination. On Day 9, a sterile silicone ring cup was placed on each CAM and 0.5 mCi of ^14 C-proline with or without the test compound plus 2.5 ng of hFGF dissolved in saline containing 0.5% methylcellulose was delivered into each ring cup in a sterile hood. 2-ME was tested in parallel to serve as a reference compound. After addition of test materials, the embryos were returned to the incubator and cultivation continued. On Day 12, all embryos were transferred to a cold room at 4-10° C.
Using the procedure outlined in Maragoudakis, et al., (1989) J. Pharm. Exp. Ther. 251:679-682, the embryos were placed on ice and a piece of CAM 10 mm in diameter was cut off under each ring cup and placed in a separate tube. To each tube was added 1.0 ml of phosphate-buffered saline (PBS, pH 7.3) containing 0.11 mg cycloheximide and 0.17 mg dipyridyl. The tubes were placed in a boiling water bath for 10 min and then cooled to room temperature. The PBS in each tube was discarded after centrifugation at 3000×G for 10 min. The CAM residue was washed once with 3 ml of 15% TCA and then three times with 3 ml of 5% TCA. Centrifugation was carried out as described above between each washing. At this point all non-protein bound radioactivity was removed, and the CAM containing the newly synthesized ^14 C-collagenous protein was suspended in 0.9 ml of 0.1 N NaOH and 1.1 ml of HEPES buffer at pH 7.4. The pH of the sample was neutralized with 0.8 N HCl, using phenol red as indicator.
To digest the ^14 C-collagenous protein, 7.5 units of collagenase and 500 nmol of calcium chloride in […] of HEPES buffer was added to the above samples, and mixtures were incubated at 37° C. for 4 h. The reaction was stopped by adding 1.0 ml of 20% TCA containing 5 mg of tannic acid into each tube. After vortex mixing, the samples were centrifuged at 3000×G for 10 min. An aliquot of the clear supernatant was taken for scintillation counting to quantitate the radiolabeled tripeptides corresponding to basement membrane collagen and other collagenous materials synthesized by the CAM from ^14 C-proline. The CAM pellets in each tube were solubilized in 0.5 ml of 1.0 N NaOH by boiling in a water bath for 5 min. […]

[2] = tested on: A549 (non-small cell lung); test: In vitro cytotoxicity screen, alamar Blue assay; format: cell-based; settings: Homo sapiens, 168 h; A549; 7 days post exposure; read-out: IC50
Protocol: (§1) Human tumor cell lines were exposed continuously to varying concentrations of test agents, i.e., BTO-956, BTO-964, BTO966 and BTO-967) and the viability of the cells was measured at set time points (1, 3, and 7 days) using the alamar Blue™ assay. […] This fluorescence can be measured with a fluorimeter, whereby the signal is directly proportional to cell number.
(§2) Various tumor cell lines of human origin representing a wide diversity of cancer pheno- and genotypes were exposed in vitro to the agents to evaluate the drug's effective range. Tumor lines screened included MDA MB 231 (breast), MCF-7 (breast), MDA MB 468 (breast), Siha (squamous cell carcinoma), A549 (non-small cell lung), HL-60 (leukemia), Ovcar-3 (ovarian). The test agents were prepared in serial dilutions from 10 mM stock solutions in DMSO yielding a 66-fold dose range of 20 μM, 10 μM, 3 μM, 1 μM and 0.3 μM concentrations. In each case, cells were maintained at 37° C. under 5 percent CO2 in air. All cell lines were incubated in Dulbecco's modified Eagle medium (DMEM) supplemented with 10% heat-inactivated fetal bovine serum and graded doses of BTO-956, 964, 966, or 967. 5-Fluorouracil (5-FU) was included as a positive control in experiments with two of the cell lines. The experiments were conducted in 96-well tissue culture plates (Falcon) with an initial seeding density of 1000 cells per well in 250 μl aliquots. The next day, medium was replaced with 100 μl of drug dilutions in triplicate.
(§3) After a 7 day exposure to the various agents, the alamarBlue dye was diluted to 20% in DMEM, and 100 μl was added to each well. The cells were incubated for 8 hours until obvious color changes indicated sufficient amounts of reduced dye for quantitation. Relative cell number was evaluated by florimetry on a Millipore 2300 CytoFluor fluorescence measurement system. Measurements were taken directly from 96-well plates after excitation at 560 nm with concomitant emission at 590 nm.

[3] = tested on: MCF-7 (breast); test: In vitro cytotoxicity screen, alamar Blue assay; format: cell-based; settings: Homo sapiens, MCF7, 168 h, 7 days post exposure
Protocol: as §1, §2, §3

[4] = tested on: MDA MB 468 (breast); test: In vitro cytotoxicity screen, alamar Blue assay; format: cell-based; settings: Homo sapiens, 168 h, 7 days post exposure
Protocol: as §1, §2, §3

[5] = tested on: Siha (squamous cell carcinoma); test: In vitro cytotoxicity screen, alamar Blue assay; format: cell-based; settings: Homo sapiens, 168 h, 7 days post exposure
Protocol: as §1, §2, §3

[6] = tested on: MDA MB 231 (breast); test: In vitro cytotoxicity screen, alamar Blue assay; format: cell-based; settings: Homo sapiens, 168 h; MDA MB 231; 7 days post exposure; read-out: IC50
Protocol: as §1, §2, §3

[7] = tested on: Ovcar-3 (ovarian); test: In vitro cytotoxicity screen, alamar Blue assay; format: cell-based; settings: Homo sapiens, 168 h, 7 days post exposure
Protocol: as §1, §2, §3

Row | SMILES | % Inhibition ([1]; 8.3 μg/CAM, BTO-964 experiment) [%] | 14C-Proline Incorporated into Collagenous Protein (cpm/mg protein) (mean ± S.E.) ([1]; 8.3 μg/CAM, BTO-964 experiment, control 11200 ± 829) [cpm/mg_protein] | % Inhibition ([1]; 25 μg/CAM, BTO-964 experiment) [%] | 14C-Proline Incorporated into Collagenous Protein (cpm/mg protein) (mean ± S.E.) ([1]; 25 μg/CAM, BTO-964 experiment, control 11200 ± 829) [cpm/mg_protein] | % Inhibition ([1]; 75 μg/CAM, BTO-964 experiment) [%] | 14C-Proline Incorporated into Collagenous Protein (cpm/mg protein) (mean ± S.E.) ([1]; 75 μg/CAM, BTO-964 experiment, control 11200 ± 829) [cpm/mg_protein] | effect in the CAM assay [1] | IC50 [2] [µM] | IC50 [3] [nM] | IC50 [4] [nM] | IC50 [5] [µM] | IC50 [6] [nM] | IC50 [7] [nM] | % Inhibition ([1]; 8.3 μg/CAM, BTO-967 experiment) [%] | 14C-Proline Incorporated into Collagenous Protein (cpm/mg protein) (mean ± S.E.) ([1]; 8.3 μg/CAM, BTO-967 experiment, control 6300 ± 696) [cpm/mg_protein] | % Inhibition ([1]; 25 μg/CAM, BTO-967 experiment) [%] | 14C-Proline Incorporated into Collagenous Protein (cpm/mg protein) (mean ± S.E.) ([1]; 25 μg/CAM, BTO-967 experiment, control 6300 ± 696) [cpm/mg_protein] | % Inhibition ([1]; 75 μg/CAM, BTO-967 experiment) [%] | 14C-Proline Incorporated into Collagenous Protein (cpm/mg protein) (mean ± S.E.) ([1]; 75 μg/CAM, BTO-967 experiment, control 6300 ± 696) [cpm/mg_protein]
1 | COc1ccc(Oc2c(I)cc(C=O)cc2I)cc1 [BTO-964, 3,5-Diiodo-4-(4'-methoxyphenoxy)benzadehyde] | 15 | 9526 ± 1492 | 27 | 8121 ± 1096 | 10 | 10076 ± 928 | antiangiogenic effect | > 20 | 2400 | 4000 | 17 | 2000 | 1800 | – | – | – | – | – | –
2 | COC(=S)c1cc(I)c(Oc2ccc(OC)cc2)c(I)c1 [BTO-967, methyl 3,5-diiodo-4-(4'-methoxyphenoxy)thiobenzoate] | – | – | – | – | – | – | antiangiogenic effect | 5.5 | 1000 | 1500 | 20 | 2000 | 800 | 13 | 5222 ± 692 | 3 | 6165 ± 1288 | 11 | 5581 ± 1182
